Structures can show the parent of a compound that is named as a salt.
Experiments:
[1] = molecular target: T1, human RORγt LBD (Homo sapiens, UniProt P51449); assay: RORγt reporter assay (GAL4-RORγt LBD luciferase, HEK293T cells); assay type: cell-based; conditions: for IC50 / RORγt reporter Assay, % inhibition @ 6 μM: HEK293T cells; for IC50: 24 hours compound treatment, firefly/renilla luciferase ratio; for inhibition at 6 µM: HEK-293T, read-out: RORγt reporter Assay, % inhibition @ 6 μM, 6 μM compound, HEK293T cells; for RORγt reporter Assay, % inhibition @ 6 μM: 6 μM compound
T1 construct: expressed in transfected cells; host or cells: HEK293T
T1 sequence (P51449 258-518): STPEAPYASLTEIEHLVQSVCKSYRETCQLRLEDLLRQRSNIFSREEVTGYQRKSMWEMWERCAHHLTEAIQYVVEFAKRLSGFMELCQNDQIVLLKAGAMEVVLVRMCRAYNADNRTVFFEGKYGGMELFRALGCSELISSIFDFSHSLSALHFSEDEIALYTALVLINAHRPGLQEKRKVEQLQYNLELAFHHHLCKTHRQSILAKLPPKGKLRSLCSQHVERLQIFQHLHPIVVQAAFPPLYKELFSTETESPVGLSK
Excerpt: A reporter assay was used to test functional activity of RORγt modulatory compounds on transcriptional activation driven by the RORγt LBD. Cells used in the assay were co-transfected with two constructs. The first construct, pBIND-RORγt LBD, contained the wild type human RORγt LBD fused to the DNA binding domain of the GAL4 protein. The second construct, pGL4.31 (Promega Cat no. C935A), contained multiple GAL4 responsive DNA elements upstream of firefly luciferase. […] The mutant construct was called pBIND-RORγt-AF2.
The pBIND vector contains the GAL4 DNA Binding Domain (GAL4 DBD) and the renilla luciferase gene under control of the SV40 promoter. Renilla luciferase expression serves as a control for transfection efficiency and cell viability.
The reporter assay was performed by transiently transfecting HEK293T cells with 5 μg of pBIND-RORγt LBD or pBIND-RORγt LBD-AF2 and 5 μg pGL4.31 (Promega Cat no. C935A) using Fugene 6 (Invitrogen Cat no. E2691) at a 1:6 ratio of DNA:Fugene 6 in a T-75 flask in which cells were at least 80% confluent. Twenty four hours after bulk transfection, cells were plated into 96-well plates at 50,000 cells/well in phenol-red free DMEM containing 5% Lipid Reduced FCS and Pen/Strep. Six hours after plating, cells were treated with compounds for 24 hours. Media was removed and cells were lysed with 50 μL 1×Glo Lysis Buffer (Promega). Dual Glo Luciferase Reagent (50 μL/well) was then added and firefly luciferase luminescence was read on an Envision after a ten minute incubation. Finally, Stop and Glo reagent (50 IAL/well) was added and renilla luciferase luminescence was read on an Envision instrument after a ten minute incubation. To calculate the effect of compounds on RORγt activity, the ratio of firefly to renilla luciferase was determined and plotted against compound concentration. Agonist compounds increase RORγt-driven luciferase expression, and antagonist or inverse agonist compounds decrease luciferase expression.

[2] = test system: IL-17 production by CD4 T cells; assay: Human Th17 assay (IL-17 production by CD4 T cells under Th17 differentiation); assay type: cell-based; conditions: 3 days, IL-17 in supernatant
Procedure: The human Th17 assay tests the effect of RORγt modulatory compounds on IL-17 production by CD4 T cells under conditions which favor Th17 differentiation. Total CD4^+ T cells were isolated from the peripheral blood mononuclear cells (PBMC) of healthy donors using a CD4^+ T cell isolation kit II, following the manufacturer's instructions (Miltenyi Biotec). […] 50 μL of compound at titrated concentrations in DMSO were added into each well at final DMSO concentration at 0.2%. Cells were incubated for 1 hour, then 50 μL of Th17 cell differentiation medium was added to each well. The final concentrations of antibodies and cytokines (R&D Systems) in differentiation medium were: 3×10^6/mL anti-CD3/CD28 beads (prepared using human T cell activation/expansion kit, Miltenyi Biotec), 10 μg/mL anti-IL4, 10 μg/mL anti-IFNγ, 10 ng/mL IL1β, 10 ng/mL IL23, 50 ng/mL IL6, 3 ng/mL TGFβ and 20 U/mL IL2. Cells were cultured at 37° C. and 5% CO2 for 3 days. Supernatants were collected and the accumulated IL-17 in culture was measured by using MULTI-SPOT® Cytokine Plate following manufacture's instruction (Meso Scale Discovery). The plate was read using Sector Imager 6000, and IL-17 concentration was extrapolated from the standard curve. The IC50s were determined by GraphPad.

[3] = molecular target: T2, human RORγt ligand binding domain (RORγt LBD) (Homo sapiens, UniProt P51449); assay: RORγt ThermoFluor® assay (thermal shift binding); conditions: RORγt LBD, 1,8-ANS dye, pH 7.0; Kd estimated from thermal shift
T2 construct: His-tag (N); TurboTEV protease cleavage site (ENLYFQG) (N); made in house; host or cells: E. coli (pHIS1, modified pET vector)
T2 sequence (P51449 with tags, fused parts or gaps): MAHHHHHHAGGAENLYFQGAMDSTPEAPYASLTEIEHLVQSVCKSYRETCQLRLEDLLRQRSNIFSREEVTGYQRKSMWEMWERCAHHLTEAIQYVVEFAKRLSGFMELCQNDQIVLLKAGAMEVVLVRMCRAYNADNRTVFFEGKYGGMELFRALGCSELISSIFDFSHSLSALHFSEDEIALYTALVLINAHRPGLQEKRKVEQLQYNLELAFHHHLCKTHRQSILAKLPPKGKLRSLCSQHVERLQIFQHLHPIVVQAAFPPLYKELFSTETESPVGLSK
Procedure: This approach is applicable to a wide variety of systems, and rigorous in theoretical interpretation through quantitation of equilibrium binding constants (KD).
The shift in the melting point described as a ΔTm is proportional to the concentration and affinity of the ligand.
Protein and compound solutions are dispensed into black 384-well polypropylene PCR microplates (Abgene) and overlayed with silicone oil (1 μL, Fluka, type DC 200) to prevent evaporation.
Bar-coded assay plates are robotically loaded onto a thermostatically controlled PCR-type thermal block and then heated at a typical ramp-rate of 1° C./min for all experiments. Fluorescence was measured by continuous illumination with UV light (Hamamatsu LC6) supplied via fiber optic and filtered through a band-pass filter (380-400 nm; >6 OD cutoff). Fluorescence emission of the entire 384-well plate was detected by measuring light intensity using a CCD camera (Sensys, Roper Scientific) filtered to detect 500±25 nm, resulting in simultaneous and independent readings of all 384 wells. Images were collected at each temperature, and the sum of the pixel intensity in a given area of the assay plate was recorded versus temperature. Reference wells contained RORγt without compounds, and the assay conditions were as follows: • 0.065 mg/mL RORγt • 60 μM 1,8-ANS • 100 mM Hepes, pH 7.0 • 10 mM NaCl • 2.5 mM GSH • 0.002% Tween-20
Project compounds were arranged in a pre-dosed mother plate (Greiner Bio-one) wherein compounds are serially diluted in 100% DMSO by 1:2 from a high concentration of 10 mM over 12 columns within a series (column 12 is a reference well containing DMSO, no compound). The compounds were robotically dispensed directly into assay plates (1×=46 nL) using a Hummingbird capillary liquid handling instrument (Digilab). Following compound dispense, protein and dye in buffer was added to achieve the final assay volume of 3 μL, followed by 1 μL of silicone oil.

| SMILES | IC50 [1] | Kd [3] | RORγt reporter Assay, % inhibition @ 6 μM [1] | further results |
| --- | --- | --- | --- | --- |
| COc1nc2ccc(C(O)(c3cncn3C)C3CCN(C(C)=O)CC3)cc2c(C#N)c1-c1cccc(C(F)(F)F)c1 (single isomer, unassigned) [Example 2c, 6-((1-Acetylpiperidin-4-yl)(hydroxy)(1-methyl-1H-imidazol-5-yl)methyl)-2-methoxy-3-(3-(trifluoromethyl)phenyl)quinoline-4-carbonitrile] | 170 nM |  |  |  |
| Cc1cc(C(O)(c2ccc(C(F)(F)F)nc2)c2cncn2C)cc2c(C#N)c(-c3ccccc3)c(C#N)nc12 (single isomer, unassigned) [Example 25c, 6-(Hydroxy(1-methyl-1H-imidazol-5-yl)(6-(trifluoromethyl)pyridin-3-yl)methyl)-8-methyl-3-phenylquinoline-2,4-dicarbonitrile] |  |  |  | IC50 ([2]; Homo sapiens, CD4+ T, 72 h): 160 nM |
| CC(=O)N1CCC(C(O)(c2cccnc2)c2ccc3nc(C(F)(F)F)c(-c4ccccc4)c(C#N)c3c2)CC1 (single isomer, unassigned) [Example 30a, 6-((1-Acetylpiperidin-4-yl)(hydroxy)(pyridin-3-yl)methyl)-3-phenyl-2-(trifluoromethyl)quinoline-4-carbonitrile.TFA] | 110 nM | 23 nM |  | inhibition at 6 µM [1]: 91% |
| CC(=O)N1CCC(C(O)(c2cccnc2)c2ccc3nc(C(F)(F)F)c(-c4ccccc4)c(C#N)c3c2)CC1 (single isomer, unassigned) [Example 30b, 6-((1-Acetylpiperidin-4-yl)(hydroxy)(pyridin-3-yl)methyl)-3-phenyl-2-(trifluoromethyl)quinoline-4-carbonitrile] | 49 nM | 300 nM | 95% | IC50 [2]: 57 nM |
| CC(=O)N1CCC(C(O)(c2cccnc2)c2ccc3nc(C(F)(F)F)c(-c4ccccc4)c(C#N)c3c2)CC1 (single isomer, unassigned) [Example 30c, 6-((1-Acetylpiperidin-4-yl)(hydroxy)(pyridin-3-yl)methyl)-3-phenyl-2-(trifluoromethyl)quinoline-4-carbonitrile] | 140 nM | 9 nM | 93% | IC50 [2]: 2200 nM |
| Cn1cncc1C(O)(c1ccc(Cl)cc1)c1ccc2nc(C(F)(F)F)c(-c3ccccc3)c(C#N)c2c1 (single isomer, unassigned) [Example 31a, 6-((4-Chlorophenyl)(hydroxy)(1-methyl-1H-imidazol-5-yl)methyl)-3-phenyl-2-(trifluoromethyl)quinoline-4-carbonitrile.TFA] | 150 nM |  |  | inhibition at 6 µM [1]: 102% |
| Cn1cncc1C(O)(c1ccc(Cl)cc1)c1ccc2nc(C(F)(F)F)c(-c3ccccc3)c(C#N)c2c1 (single isomer, unassigned) [Example 31b, 6-((4-Chlorophenyl)(hydroxy)(1-methyl-1H-imidazol-5-yl)methyl)-3-phenyl-2-(trifluoromethyl)quinoline-4-carbonitrile] | 42 nM | 5 nM | 103% | IC50 ([2]; Homo sapiens, CD4+ T, 72 h): 20 nM |
| Cn1cncc1C(O)(c1ccc(Cl)cc1)c1ccc2nc(C(F)(F)F)c(-c3ccccc3)c(C#N)c2c1 (single isomer, unassigned) [Example 31c, 6-((4-Chlorophenyl)(hydroxy)(1-methyl-1H-imidazol-5-yl)methyl)-3-phenyl-2-(trifluoromethyl)quinoline-4-carbonitrile] | 1600 nM | 3300 nM | 85% |  |
| COc1c(-c2ccccc2)c(Cl)nc2ccc(C(O)(c3cnnn3C)c3cnc(C)n3C)cc12 (single isomer, unassigned) [Example 40b, (2-Chloro-4-methoxy-3-phenylquinolin-6-yl)(1,2-dimethyl-1H-imidazol-5-yl)(1-methyl-1H-1,2,3-triazol-5-yl)methanol] | 680 nM | 150 nM |  |  |
| COc1c(-c2ccccc2)c(Cl)nc2ccc(C(O)(c3cnnn3C)c3cnc(C)n3C)cc12 (single isomer, unassigned) [Example 40c, (2-Chloro-4-methoxy-3-phenylquinolin-6-yl)(1,2-dimethyl-1H-imidazol-5-yl)(1-methyl-1H-1,2,3-triazol-5-yl)methanol] | 190 nM | 120 nM |  |  |
| Cn1cncc1C(O)(c1ccc(Cl)cc1)c1ccc2nc(Cl)c(-c3ccccc3)c(Cl)c2c1 (stereo not shown) [Example 65, (4-Chlorophenyl)(2,4-dichloro-3-phenylquinolin-6-yl)(1-methyl-M-imidazol-5-yl)methanol] |  |  |  | IC50 ([2]; 72 h): 1800 nM |
| Cc1nc(C)c(C(O)(c2ccc3nc(Cl)c(-c4ccccc4)c(Cl)c3c2)c2cncn2C)s1 (stereo not shown) [Example 68, (2,4-Dichloro-3-phenylquinolin-6-yl)(2,4-dimethylthiazol-5-yl)(1-methyl-1H-imidazol-5-yl)methanol] |  |  |  | IC50 ([2]; 72 h): 20 nM |
